Data as given in patent publication US20210386367A1, “DEVICES AND SYSTEMS FOR GASTROINTESTINAL MICROBIOME DETECTION AND MANIPULATION” (Progenity, Inc., priority 2018, published 2021).
≈ marks a conversion by molar mass, not a printed value. Like-named read-outs stand apart in the source and are kept apart here.

Legend:
[1] = tested on: Bacteroides non fragilis clinical isolates; assay: MIC distribution against clinical isolates; assay type: cell-based; details: 29 Bacteroides non-fragilis isolates
[2] = tested on: Prevotella spp. clinical isolates; assay: MIC distribution against clinical isolates; assay type: cell-based; details: 30 Prevotella spp. isolates
[3] = tested on: Klebsiella spp.; assay: Broth microdilution MIC, 50 clinical isolates (20 K. oxytoca, 30 K. pneumoniae); assay type: cell-based
Procedure: Minimal inhibitory concentration (MIC) values were determined by broth microdilution or agar dilution in accordance with guidelines from the Clinical and Laboratory Standards Institute (CLSI; (1) “Methods for Dilution Antimicrobial Susceptibility Tests for Bacteria That Grow Aerobically; Approved Standard; 11th ed.” CLSI standard M07-A11, 2018; (2) “Performance Standards for Antimicrobial Susceptibility Testing; Twenty-Eighth Informational Supplement,” CLSI document M100-S28, 2018; and (3) “Methods for Antimicrobial Susceptibility Testing of Anaerobic Bacteria; Approved Standard—Eighth Edition,” CLSI document M11-A8, 2012).
Tested aerobically by broth microdilution: • Escherichia coli, n=50 • Klebsiella spp., n=50 • Pseudomonas aeruginosa, n=50 • Streptococcus spp., n=50 • Staphylococcus aureus, n=50 • Enterococcus faecalis, n=50 • Enterobacter aerogenes, n=50 • Proteus mirabilis, n=50
Broth microdilution testing of aerobic bacteria was conducted in cation-adjusted Mueller Hinton broth (MHBII). For testing streptococci, lysed horse blood (LHB) was added to MHBII broth at a final concentration of 3%. Where LHB was used, it was added after filtering.
Broth microdilution susceptibility testing in 96-well microplates was conducted in accordance with CLSI methods (1) and (2). Automated liquid handlers were used to conduct serial dilutions and liquid transfers, including the Multidrop 384 (Labsystems, Helsinki, Finland), Biomek 2000, and the Biomek FX (Beckman Coulter, Fullerton, Calif.). All wells in columns 2 through 12 of a standard 96-well microdilution plate (Costar 3795) were filled with 150 μL of the appropriate diluent. Then, 300 μL of the test agents were added to the wells of column 1 of the plates at 100× the highest final concentration to be tested. Serial two-fold dilutions were made across the rows through column 11 using the Biomek 2000. The wells of column 12 contained no drug and served as the growth control wells. This plate served as the “mother plate” from which MIC assay plates or “daughter plates” were made.
The daughter plates were loaded with 190 μL per well of the appropriate medium using the Multidrop 384. The daughter plates were created using the Biomek FX which transferred 2 μL of drug solution from each well of a mother plate to each corresponding well of the daughter plate in a single step. A standardized inoculum of each test organism was prepared per CLSI methods (1) to equal a 0.5 McFarland standard, followed by a dilution of 1:20 for aerobes and 1:10 for anaerobes. The plates were then inoculated with 10 μL of the diluted inoculum using the Biomek 2000 from low to high drug concentration, resulting in a final concentration of approximately 5×10^5 CFU/mL per well. An un-inoculated plate was incubated in parallel for each medium for the purpose of assessing solubility of the drug in the test media.
Inoculated plates were stacked 3 or 4 high, covered with a sterile lid on the top plate, placed into boxes with CO2 planchets (streptococci) or plastic bags (all other isolates). Plates were incubated at 35° C. for 16-24 hr in ambient air for aerobes or for 42-48 hr in the anaerobic environment of the Bactron II anaerobe chamber (Sheldon Manufacturing Co.; Cornelius, Oreg.). Following incubation, the microplates were removed from the incubator and viewed from the bottom using a plate viewer. The MIC values were read and recorded as the lowest concentration of drug that inhibited visible growth of the organism as per CLSI methods (1) and (2).

[4] = tested on: Bacteroides spp. (B. fragilis ATCC 25285, B. vulgatus, B. ovatus MMX 3503); assay: Agar dilution MIC (spontaneous mutation study; strain in conditions); assay type: cell-based
[5] = tested on: S. pneumoniae ATCC 49619; details: cited from earlier work
[6] = tested on: SIBO Bacteria; details: cited from earlier work

Cc1ncc([N+](=O)[O-])n1CCO [MTZ]
Cumulative percentage of isolates inhibited at MIC ([1]; MIC 0.5 μg/mL): 55.2% | Number of test isolates at MIC ([1]; MIC 0.5 μg/mL): 12 | Cumulative percentage of isolates inhibited at MIC ([1]; MIC 1 μg/mL): 75.9% | Number of test isolates at MIC ([1]; MIC 1 μg/mL): 6 | Cumulative percentage of isolates inhibited at MIC ([1]; MIC 2 μg/mL): 96.6% | Number of test isolates at MIC ([1]; MIC 2 μg/mL): 6 | Cumulative percentage of isolates inhibited at MIC ([1]; MIC >16 μg/mL): 100.0% | Number of test isolates at MIC ([1]; MIC >16 μg/mL): 1 | Cumulative percentage of isolates inhibited at MIC ([2]; MIC 0.5 μg/mL): 46.7% | Number of test isolates at MIC ([2]; MIC 0.5 μg/mL): 8 | Cumulative percentage of isolates inhibited at MIC ([2]; MIC 1 μg/mL): 76.7% | Number of test isolates at MIC ([2]; MIC 1 μg/mL): 9 | Cumulative percentage of isolates inhibited at MIC ([2]; MIC 4 μg/mL): 83.3% | Number of test isolates at MIC ([2]; MIC 4 μg/mL): 2 | Cumulative percentage of isolates inhibited at MIC ([2]; MIC 8 μg/mL): 96.7% | Number of test isolates at MIC ([2]; MIC 8 μg/mL): 4 | Cumulative percentage of isolates inhibited at MIC ([2]; MIC >32 μg/mL): 100.0% | Number of test isolates at MIC ([2]; MIC >32 μg/mL): 1

COc1c(N2C[C@@H]3CCCN[C@@H]3C2)c(F)cc2c(=O)c(C(=O)O)cn(C3CC3)c12 [moxifloxacin]
MIC range [3]: 0.015 to 128 µg/mL | Mode [3]: 0.06 µg/mL | Cumulative percentage of isolates at MIC ([3]; 0.015 μg/mL): 2.0% | Number of test isolates at MIC ([3]; 0.015 μg/mL): 1 | Cumulative percentage of isolates at MIC ([3]; 0.03 μg/mL): 8.0% | Number of test isolates at MIC ([3]; 0.03 μg/mL): 3 | Cumulative percentage of isolates at MIC ([3]; 0.06 μg/mL): 56.0% | Number of test isolates at MIC ([3]; 0.06 μg/mL): 24 | Cumulative percentage of isolates at MIC ([3]; 0.5 μg/mL): 77.0% | Number of test isolates at MIC ([3]; 0.5 μg/mL): 2 | Cumulative percentage of isolates at MIC ([3]; 1 μg/mL): 74.0% | Number of test isolates at MIC ([3]; 1 μg/mL): 1 | Cumulative percentage of isolates at MIC ([3]; 2 μg/mL): 80.0% | Number of test isolates at MIC ([3]; 2 μg/mL): 3 | Cumulative percentage of isolates at MIC ([3]; 4 μg/mL): 84.0% | Number of test isolates at MIC ([3]; 4 μg/mL): 2 | Cumulative percentage of isolates at MIC ([3]; 16 μg/mL): 88.0% | Number of test isolates at MIC ([3]; 16 μg/mL): 2 | Cumulative percentage of isolates at MIC ([3]; 32 μg/mL): 94.0% | Number of test isolates at MIC ([3]; 32 μg/mL): 3 | Cumulative percentage of isolates at MIC ([3]; 64 μg/mL): 96.0% | Number of test isolates at MIC ([3]; 64 μg/mL): 1 | Cumulative percentage of isolates at MIC ([3]; 128 μg/mL): 100.0% | Number of test isolates at MIC ([3]; 128 μg/mL): 2 | MIC50 ([3]; Klebsiella, read-out: MIC50): 0.06 µg/mL (≈ 0.149 µM) | MIC90 ([3]; Klebsiella, read-out: MIC90): 32 µg/mL (≈ 79.7 µM)

CO[C@H]1/C=C/O[C@@]2(C)Oc3c(C)c(O)c4c(O)c(c5c(nc6cc(C)ccn65)c4c3C2=O)NC(=O)/C(C)=C\C=C\[C@H](C)[C@H](O)[C@@H](C)[C@@H](O)[C@@H](C)[C@H](OC(C)=O)[C@@H]1C [rifaximin]
MIC50 [3]: 32 µg/mL (≈ 40.7 µM) | MIC90 [3]: > 64 µg/mL | Mode [3]: 16 µg/mL | Cumulative percentage of isolates at MIC ([3]; 8 μg/mL): 10.0% | Number of test isolates at MIC ([3]; 8 μg/mL): 5 | Cumulative percentage of isolates at MIC ([3]; 16 μg/mL): 46.0% | Number of test isolates at MIC ([3]; 16 μg/mL): 18 | Cumulative percentage of isolates at MIC ([3]; 32 μg/mL): 64.0% | Number of test isolates at MIC ([3]; 32 μg/mL): 9 | Cumulative percentage of isolates at MIC ([3]; 64 μg/mL): 80.0% | Number of test isolates at MIC ([3]; 64 μg/mL): 8 | Cumulative percentage of isolates at MIC ([3]; >64 μg/mL): 100.0% | Number of test isolates at MIC ([3]; >64 μg/mL): 10 | MIC90 ([3]; listed as RFX): >64 µg/mL | Agar MIC ([4]; B. fragilis ATCC 25285): 0.25 µg/mL | Agar MIC ([4]; B. ovatus MMX 3503): 0.5 µg/mL | Agar MIC ([4]; B. vulgatus ATCC 8482): 0.12 µg/mL | Number of test isolates at MIC ([1]; MIC […]): 12 | Number of test isolates at MIC ([1]; MIC ≤0.03 μg/mL): 3 | Cumulative percentage of isolates inhibited at MIC ([2]; MIC 32 μg/mL): 100.0% | Number of test isolates at MIC ([2]; MIC 32 μg/mL): 1 | Number of test isolates at MIC ([2]; MIC […]): 12

CN[C@H](CC(C)C)C(=O)N[C@H]1C(=O)N[C@@H](CC(N)=O)C(=O)N[C@H]2C(=O)N[C@H]3C(=O)N[C@H](C(=O)N[C@H](C(=O)O)c4cc(O)cc(O)c4-c4cc3ccc4O)[C@H](O)c3ccc(c(Cl)c3)Oc3cc2cc(c3O[C@@H]2O[C@H](CO)[C@@H](O)[C@H](O)[C@H]2O[C@H]2C[C@](C)(N)[C@H](O)[C@H](C)O2)Oc2ccc(cc2Cl)[C@H]1O [vancomycin, Vancomycin]
CLSI QC range (MIC) [5]: (0.12-0.5) μg/mL

piperacillin/tazobactam [piperacillin-tazobactam]
% I [3]: 2% | % R [3]: 24% | % S [3]: 74% | MIC50 [3]: 4 µg/mL | MIC90 [3]: >128 µg/mL | Mode [3]: 2 µg/mL | Cumulative percentage of isolates at MIC ([3]; 0.5 μg/mL): 4.0% | Number of test isolates at MIC ([3]; 0.5 μg/mL): 2. | Cumulative percentage of isolates at MIC ([3]; 1 μg/mL): 14.0% | Number of test isolates at MIC ([3]; 1 μg/mL): 5 | Cumulative percentage of isolates at MIC ([3]; 2 μg/mL): 48.0% | Number of test isolates at MIC ([3]; 2 μg/mL): 17 | Cumulative percentage of isolates at MIC ([3]; 4 μg/mL): 58.0% | Number of test isolates at MIC ([3]; 4 μg/mL): 5 | Cumulative percentage of isolates at MIC ([3]; 8 μg/mL): 68.0% | Number of test isolates at MIC ([3]; 8 μg/mL): 5 | Cumulative percentage of isolates at MIC ([3]; 16 μg/mL): 74.0% | Number of test isolates at MIC ([3]; 16 μg/mL): 3 | Cumulative percentage of isolates at MIC ([3]; 64 μg/mL): 76.0% | Number of test isolates at MIC ([3]; 64 μg/mL): 1 | Cumulative percentage of isolates at MIC ([3]; 128 μg/mL): 78.0% | Number of test isolates at MIC ([3]; 128 μg/mL): 1 | Cumulative percentage of isolates at MIC ([3]; >128 μg/mL): 100.0% | Number of test isolates at MIC ([3]; >128 μg/mL): 11 | activity against SIBO organisms [6]: active against SIBO organisms
